Source: the supplement of paper PMC10307832

How the values were obtained:
Assay in all cases: relative viability (nuclei count vs DMSO), 5 days (fraction); higher = more cells survive
Decitabine + Dasatinib = compound: Nc1ncn([C@H]2C[C@H](O)[C@@H](CO)O2)c(=O)n1 [Decitabine] + Cc1nc(Nc2ncc(C(=O)Nc3c(C)cccc3Cl)s2)cc(N2CCN(CCO)CC2)n1 [Dasatinib] (partner 0.075 µM)
Method in brief: (§1)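 After 5 days of treatment, lung cancer cells in 1536-well plates were fixed and stained in a single step (final 0.05% Triton X-100, 1% formaldehyde, 1 ug/ml Hoechst) and their nuclei counted on 4× images. Treatment had been applied by pin tool the day after seeding as one drug alone or as a fixed anchor-drug dose with five library-drug doses (not always all listed) in √10 steps. Relative viability is the nuclei count of treated wells divided by that of vehicle wells, and values are medians of duplicate plates.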

Cediranib + Phenformin = compound: COc1cc2c(Oc3ccc4[nH]c(C)cc4c3F)ncnc2cc1OCCCN1CCCC1 [Cediranib] + N=C(N)NC(=N)NCCc1ccccc1 [Phenformin] (partner 250 µM)
Method in brief: as §1

Cediranib + Foretinib = compound: COc1cc2c(Oc3ccc4[nH]c(C)cc4c3F)ncnc2cc1OCCCN1CCCC1 [Cediranib] + COc1cc2c(Oc3ccc(NC(=O)C4(C(=O)Nc5ccc(F)cc5)CC4)cc3F)ccnc2cc1OCCCN1CCOCC1 [Foretinib] (partner 0.25 µM)
Method in brief: as §1

Decitabine + Palbociclib = compound: Nc1ncn([C@H]2C[C@H](O)[C@@H](CO)O2)c(=O)n1 [Decitabine] + CC(=O)c1c(C)c2cnc(Nc3ccc(N4CCNCC4)cn3)nc2n(C2CCCC2)c1=O [Palbociclib] (partner 0.5 µM)
Method in brief: as §1

## UMC-11
Decitabine + Dasatinib; first compound 0.04 µM
  relative viability: 0.496
Decitabine + Dasatinib; first compound 0.1265 µM
  relative viability: 0.442
Decitabine + Dasatinib; first compound 0.4 µM
  relative viability: 0.293
Decitabine + Dasatinib; first compound 1.265 µM
  relative viability: 0.335
Decitabine + Dasatinib; first compound 4 µM
  relative viability: 0.327
Cediranib + Phenformin; first compound 0.04 µM
  relative viability: 0.342
Cediranib + Phenformin; first compound 0.4 µM
  relative viability: 0.346
Cediranib + Phenformin; first compound 4 µM
  relative viability: 0.3
Cediranib + Foretinib; first compound 0.04 µM
  relative viability: 1.1
Cediranib + Foretinib; first compound 0.4 µM
  relative viability: 1.03
Cediranib + Foretinib; first compound 4 µM
  relative viability: 1.05
Decitabine + Palbociclib; first compound 0.04 µM
  relative viability: 0.344
Decitabine + Palbociclib; first compound 0.1265 µM
  relative viability: 0.276
Decitabine + Palbociclib; first compound 0.4 µM
  relative viability: 0.313
Decitabine + Palbociclib; first compound 1.265 µM
  relative viability: 0.283
Decitabine + Palbociclib; first compound 4 µM
  relative viability: 0.285
